Experimental data reported in ChEMBL document CHEMBL1136070, “Design and synthesis of phosphotyrosine mimetics” (Bioorg Med Chem Lett, 2003).

Legend:
[1] = molecular target: T1, Tyrosine-protein phosphatase non-receptor type 1 (Homo sapiens) (UniProt P18031); experiment: Compound was tested for inhibition of Protein-tyrosine phosphatase 1B at a concentration of 100 uM in fluorometric assay using DiFMUP
T1 sequence (whole entry): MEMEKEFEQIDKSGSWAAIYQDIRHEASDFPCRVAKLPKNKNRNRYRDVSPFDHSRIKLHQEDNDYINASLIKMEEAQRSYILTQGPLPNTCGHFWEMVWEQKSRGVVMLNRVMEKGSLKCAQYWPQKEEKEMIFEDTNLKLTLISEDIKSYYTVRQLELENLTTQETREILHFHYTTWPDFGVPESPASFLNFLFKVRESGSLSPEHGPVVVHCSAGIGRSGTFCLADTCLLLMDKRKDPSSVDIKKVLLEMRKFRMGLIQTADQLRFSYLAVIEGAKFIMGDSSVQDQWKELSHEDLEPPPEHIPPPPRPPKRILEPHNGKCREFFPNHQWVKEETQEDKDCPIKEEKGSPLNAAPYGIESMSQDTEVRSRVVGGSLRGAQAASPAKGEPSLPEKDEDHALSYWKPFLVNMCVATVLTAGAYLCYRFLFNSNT

[2] = molecular target: Receptor-type tyrosine-protein phosphatase C (CD45) (Homo sapiens) (UniProt P08575); experiment: Compound was tested for inhibition of CD45 tyrosine phosphatase at a concentration of 100 uM in fluorometric assay using DiFMUP
[3] = molecular target: T2, Tyrosine-protein phosphatase non-receptor type 2 (Homo sapiens) (UniProt P17706); experiment: Compound was tested for inhibition of T-cell protein tyrosine phosphatase TC-PTP at a concentration of 100 uM in fluorometric assay using DiFMUP
T2 sequence (whole entry): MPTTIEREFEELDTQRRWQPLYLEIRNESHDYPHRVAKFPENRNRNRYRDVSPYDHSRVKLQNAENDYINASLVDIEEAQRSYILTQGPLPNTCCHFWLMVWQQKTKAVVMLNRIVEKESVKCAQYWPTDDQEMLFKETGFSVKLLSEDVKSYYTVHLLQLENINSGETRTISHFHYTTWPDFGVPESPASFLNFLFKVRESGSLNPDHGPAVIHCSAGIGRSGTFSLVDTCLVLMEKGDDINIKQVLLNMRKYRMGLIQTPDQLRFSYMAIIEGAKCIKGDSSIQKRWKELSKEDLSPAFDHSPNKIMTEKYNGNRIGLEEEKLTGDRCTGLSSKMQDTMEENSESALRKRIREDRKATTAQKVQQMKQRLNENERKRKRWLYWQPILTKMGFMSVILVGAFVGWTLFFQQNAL

[4] = molecular target: Receptor-type tyrosine-protein phosphatase C (CD45) (Homo sapiens) (UniProt P08575); experiment: Compound was tested for inhibition of CD45 tyrosine phosphatase at a concentration of 10 uM in fluorometric assay using DiFMUP
[5] = molecular target: T1, Tyrosine-protein phosphatase non-receptor type 1 (Homo sapiens); experiment: Compound was tested for inhibition of Protein-tyrosine phosphatase 1B at a concentration of 10 uM in fluorometric assay using DiFMUP
[6] = molecular target: Receptor-type tyrosine-protein phosphatase F (Homo sapiens) (UniProt P10586); experiment: Compound was tested for inhibition of Lar tyrosine phosphatase at a concentration of 100 uM in fluorometric assay using DiFMUP
[7] = molecular target: Receptor-type tyrosine-protein phosphatase F (Homo sapiens) (UniProt P10586); experiment: Compound was tested for inhibition of Lar tyrosine phosphatase at a concentration of 10 uM in fluorometric assay using DiFMUP
[8] = molecular target: T2, Tyrosine-protein phosphatase non-receptor type 2 (Homo sapiens); experiment: Compound was tested for inhibition of T-cell protein tyrosine phosphatase TC-PTP at a concentration of 10 uM in fluorometric assay using DiFMUP

Chain of Receptor-type tyrosine-protein phosphatase F (Homo sapiens) (P10586 whole entry): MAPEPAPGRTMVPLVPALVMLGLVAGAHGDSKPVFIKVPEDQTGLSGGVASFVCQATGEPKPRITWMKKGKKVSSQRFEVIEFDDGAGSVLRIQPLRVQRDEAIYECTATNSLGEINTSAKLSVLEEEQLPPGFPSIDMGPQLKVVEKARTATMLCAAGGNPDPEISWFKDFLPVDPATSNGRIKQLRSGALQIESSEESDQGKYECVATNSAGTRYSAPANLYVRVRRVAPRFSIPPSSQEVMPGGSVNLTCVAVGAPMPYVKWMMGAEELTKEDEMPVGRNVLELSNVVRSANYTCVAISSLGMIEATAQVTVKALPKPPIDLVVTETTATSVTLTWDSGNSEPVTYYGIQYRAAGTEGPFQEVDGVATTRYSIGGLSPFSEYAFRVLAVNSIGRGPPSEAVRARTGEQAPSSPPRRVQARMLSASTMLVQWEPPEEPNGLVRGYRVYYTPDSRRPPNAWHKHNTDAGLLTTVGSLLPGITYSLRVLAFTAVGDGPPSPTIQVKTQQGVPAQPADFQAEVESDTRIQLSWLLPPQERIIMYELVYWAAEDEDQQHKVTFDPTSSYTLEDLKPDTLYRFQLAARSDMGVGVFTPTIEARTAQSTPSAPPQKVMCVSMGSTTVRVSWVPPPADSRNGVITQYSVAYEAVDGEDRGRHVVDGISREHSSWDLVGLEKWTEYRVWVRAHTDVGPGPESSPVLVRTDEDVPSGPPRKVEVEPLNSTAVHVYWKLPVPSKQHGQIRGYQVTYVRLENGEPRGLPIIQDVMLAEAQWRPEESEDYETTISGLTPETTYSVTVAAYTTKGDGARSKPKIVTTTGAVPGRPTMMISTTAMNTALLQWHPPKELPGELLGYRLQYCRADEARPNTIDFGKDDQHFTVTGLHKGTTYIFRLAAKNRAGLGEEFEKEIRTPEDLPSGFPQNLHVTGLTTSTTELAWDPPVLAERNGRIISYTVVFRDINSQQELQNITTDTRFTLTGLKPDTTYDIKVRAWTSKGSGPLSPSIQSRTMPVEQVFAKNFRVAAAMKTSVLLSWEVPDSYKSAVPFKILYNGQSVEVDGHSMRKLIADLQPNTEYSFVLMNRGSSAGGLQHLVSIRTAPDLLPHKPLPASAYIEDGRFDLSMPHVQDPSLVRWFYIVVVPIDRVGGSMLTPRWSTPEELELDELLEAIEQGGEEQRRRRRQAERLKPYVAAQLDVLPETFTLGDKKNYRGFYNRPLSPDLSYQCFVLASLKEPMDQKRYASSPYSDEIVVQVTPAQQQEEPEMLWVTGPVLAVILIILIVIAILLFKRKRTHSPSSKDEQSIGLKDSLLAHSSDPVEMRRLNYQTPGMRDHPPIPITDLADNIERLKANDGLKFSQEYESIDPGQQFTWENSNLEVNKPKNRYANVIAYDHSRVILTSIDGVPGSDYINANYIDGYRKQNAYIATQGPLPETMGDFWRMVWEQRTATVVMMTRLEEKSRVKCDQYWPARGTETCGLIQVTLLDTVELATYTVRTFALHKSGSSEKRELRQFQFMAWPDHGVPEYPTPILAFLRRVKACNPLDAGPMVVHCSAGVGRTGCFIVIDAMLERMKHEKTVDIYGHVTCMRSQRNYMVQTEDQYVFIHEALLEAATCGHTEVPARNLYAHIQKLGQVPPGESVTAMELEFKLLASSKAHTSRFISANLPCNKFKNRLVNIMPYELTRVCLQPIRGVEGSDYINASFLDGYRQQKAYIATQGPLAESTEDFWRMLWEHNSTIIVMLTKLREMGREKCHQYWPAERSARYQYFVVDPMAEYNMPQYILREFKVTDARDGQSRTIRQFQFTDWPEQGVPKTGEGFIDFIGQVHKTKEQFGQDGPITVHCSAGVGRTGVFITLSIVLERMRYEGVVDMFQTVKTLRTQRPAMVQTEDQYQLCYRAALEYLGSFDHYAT
Chain of Receptor-type tyrosine-protein phosphatase C (CD45) (Homo sapiens) (P08575 whole entry, looked up): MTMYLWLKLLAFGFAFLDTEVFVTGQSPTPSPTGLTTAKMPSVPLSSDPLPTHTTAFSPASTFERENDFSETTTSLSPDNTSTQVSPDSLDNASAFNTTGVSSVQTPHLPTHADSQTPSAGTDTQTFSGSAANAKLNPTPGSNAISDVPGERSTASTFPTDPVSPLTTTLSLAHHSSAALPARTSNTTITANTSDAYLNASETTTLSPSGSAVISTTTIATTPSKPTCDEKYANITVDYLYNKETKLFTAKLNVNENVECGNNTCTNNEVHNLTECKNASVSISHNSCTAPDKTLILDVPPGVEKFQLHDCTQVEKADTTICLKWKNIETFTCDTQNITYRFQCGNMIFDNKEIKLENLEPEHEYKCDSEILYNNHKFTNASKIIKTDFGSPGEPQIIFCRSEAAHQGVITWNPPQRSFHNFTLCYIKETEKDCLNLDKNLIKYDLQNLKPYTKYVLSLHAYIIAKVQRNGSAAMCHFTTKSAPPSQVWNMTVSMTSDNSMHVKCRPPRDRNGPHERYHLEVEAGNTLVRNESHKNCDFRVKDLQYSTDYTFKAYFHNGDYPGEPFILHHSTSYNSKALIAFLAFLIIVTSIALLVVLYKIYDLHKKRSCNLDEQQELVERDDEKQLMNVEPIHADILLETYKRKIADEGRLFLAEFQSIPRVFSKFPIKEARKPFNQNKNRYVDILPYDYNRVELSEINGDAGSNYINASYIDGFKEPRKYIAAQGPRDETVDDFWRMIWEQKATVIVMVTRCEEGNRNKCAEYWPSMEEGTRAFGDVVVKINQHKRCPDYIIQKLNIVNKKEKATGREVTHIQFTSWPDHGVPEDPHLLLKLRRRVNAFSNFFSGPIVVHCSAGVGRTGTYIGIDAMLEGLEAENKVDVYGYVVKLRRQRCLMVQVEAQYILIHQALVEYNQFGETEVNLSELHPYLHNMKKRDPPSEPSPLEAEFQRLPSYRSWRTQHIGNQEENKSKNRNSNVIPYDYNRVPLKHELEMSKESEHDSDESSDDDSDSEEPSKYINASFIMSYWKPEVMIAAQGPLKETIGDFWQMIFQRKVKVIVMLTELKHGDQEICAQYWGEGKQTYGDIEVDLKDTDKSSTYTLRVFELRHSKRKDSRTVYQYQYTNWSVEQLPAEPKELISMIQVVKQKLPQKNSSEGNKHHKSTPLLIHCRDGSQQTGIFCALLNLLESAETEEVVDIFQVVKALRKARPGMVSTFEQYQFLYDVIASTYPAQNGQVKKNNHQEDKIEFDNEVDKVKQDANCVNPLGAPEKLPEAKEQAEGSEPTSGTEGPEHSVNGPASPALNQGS

| inhibition [1] | inhibition [2] | inhibition [3] | inhibition [4] | inhibition [5] | inhibition [6] | inhibition [7] | inhibition [8] | SMILES |
| --- | --- | --- | --- | --- | --- | --- | --- | --- |
| 95% | 50% | 100% | 5% | 0% | 50% | 25% | 85% | O=C(O)CCCC1C=CC(C(=O)NC(Cc2ccc3sccc(=O)c3c2)C(=O)O)n2c(=O)n(Cc3cc(F)ccc3F)c(=O)n21 (configuration not stated) |
| 95% | 55% | 90% | 15% | 55% | 50% | 10% | 20% | CC(Cn1c(=O)n2n(c1=O)C(C(=O)NC(Cc1ccc3sccc(=O)c3c1)C(=O)O)C=CC2CCCC(=O)O)c1ccccc1 (configuration not stated) |
| 100% | 70% | 100% | 20% | 75% | 70% | 50% | 85% | O=C(O)CCCC1C=CC(C(=O)NC(Cc2ccc3sccc(=O)c3c2)C(=O)O)n2c(=O)n(-c3ccc(Oc4ccccc4)cc3)c(=O)n21 (configuration not stated) |
| 70% | 70% | 20% | 20% | 40% | 10% | 0% | 10% | O=C(O)CCCC1C=CC(C(=O)NC(Cc2ccc3sccc(=O)c3c2)C(=O)O)n2c(=O)n(CC3CCCCC3)c(=O)n21 (configuration not stated) |
